The subject of data set [1] is human serum albumin (HSA). To be noted: cited from earlier work. An excerpt: After its approval by FDA in 2008, degarelix became the most widely used GnRH antagonist in patients with advanced prostate cancer.[17] The advantages of degarelix are its high affinity to the GnRH receptor, increased hydrophilicity, and decreased propensity to form gels. As a result, degarelix has better bioavailability than the previous GnRH antagonists. These improved characteristics are related to the presence of additional 4‐[(aminocarbonyl)amino]‐phenylalanine [Aph(Cbm)] and 4‐[(dihydroorotyl)amino]‐phenylalanine [Aph(Hor)] moieties, which afford multiple hydrogen‐bonding sites and permi ...

A short description of the next data set: in vitro. Conditions: male, human, plasma, pH 7.8.
For data set [2] the following is noted: in vivo; cited from earlier work.
In data set [3] the test system is human cytochrome P450 system. To be noted: cited from earlier work.
The nature of data set [4]: Stability in 4.5% human serum albumin (HSA) solution without warfarin. The format is in vitro ADME. Conditions: 37°C, 2000 ng/mL, up to 48 h. The text has this:
(§1) The solutions were shaken and centrifuged. […] All the experiments were repeated three times.

Data set [5] can be described thus: Stability in HSA solution with warfarin. To be noted: 37°C, 2000 ng/mL, up to 48 h. The format is in vitro ADME, human.
Excerpt: as §1

Where a SMILES comes first, the peptide text is derived from it. [ ]: non-standard residue; d: D form. The star is where a group is joined. dPhe(4-NHCONH2) = NC(=O)Nc1ccc(C[C@@H](N)C(=O)O)cc1; Dihydroorotyl(S) = O=C1C[C@@H](C(=O)*)NC(=O)N1; dPhe(4-Cl) = N[C@H](Cc1ccc(Cl)cc1)C(=O)O; Phe(4-NH2) = Nc1ccc(C[C@H](N)C(=O)O)cc1; d2Nal = N[C@H](Cc1ccc2ccccc2c1)C(=O)O; Lys(iPr) = CC(C)NCCCC[C@H](N)C(=O)O; X1 = O=C1NC(=O)[C@H](CC(=O)*)N1; d3Pal = N[C@H](Cc1cccnc1)C(=O)O

Description for in vitro: Degarelix or 5‐Hyd‐degarelix test solutions (10 μL of 180 μg/mL degarelix or 5‐Aph(Hyd)‐degarelix in 20% acetonitrile) were each mixed with 890 μL of human plasma, Dulbecco buffer (5 mM NaH2PO4, 20 mM Na2HPO4, 5 mM KCl, 120 mM NaCl, adjusted to pH 7.4 with NaOH), 4.5% human serum albumin solution (HSA solution), and human serum albumin solution with 0.21 mg/mL warfarin: 3960 μL HSA solution +40 μL warfarin stock solution (21 mg warfarin in 1 mL water)to a final concentration of 2000 ng/mL of each analyte and 0.2% of acetonitrile. […] The samples were then diluted with 10 μL of the solution of 0.1% of formic acid in 20% acetonitrile and 70 μL of acetonitrile. The solutions were shaken and centrifuged. To 50 μL of the supernatant, 20 μL of water and 0.2% of formic acid were added and the solution was used for HPLC analysis. All the experiments were repeated three times.
The ANALYST software was used to integrate all peaks automatically by use of the IntelliQuan algorithm and to calculate the calibration curves of degarelix and 5‐Aph(Hyd)‐degarelix by linear regression with a weighting of 1/x ^2. The parameters for peak integrations were adapted for all samples in each analytical batch. The ANALYST software was used to calculate the concentrations of the test and QC samples based on the corresponding calibration curves.

With `CC(=O)N[C@H](Cc1ccc2ccccc2c1)C(=O)N[C@H](Cc1ccc(Cl)cc1)C(=O)N[C@H](Cc1cccnc1)C(=O)N[C@@H](CO)C(=O)N[C@@H](Cc1ccc(NC(=O)[C@@H]2CC(=O)NC(=O)N2)cc1)C(=O)N[C@H](Cc1ccc(NC(N)=O)cc1)C(=O)N[C@@H](CC(C)C)C(=O)N[C@@H](CCCCNC(C)C)C(=O)N1CCC[C@H]1C(=O)N[C@H](C)C(N)=O` [degarelix] (Ac-[d2Nal][dPhe(4-Cl)][d3Pal]S[Phe(4-NH2)](Dihydroorotyl(S))[dPhe(4-NHCONH2)]L[Lys(iPr)]P[dA]-NH2), in data set [1], the “Binding to human serum albumin (HSA)” value is on record as 76.3%. Besides, in “in vitro”, the amount remaining at 8 h, 2000 ng/mL is 104%; the share remaining at 24 h, 2000 ng/mL was found to be 92%; the share remaining at 32 h, 2000 ng/mL is 91%; the amount remaining at 48 h, 2000 ng/mL was determined as 74%. Besides, in data set [2], the “Time to reach the maximum concentration in the blood” value is 37 to 42 h. In addition, in data set [3], the “Substrate for the human cytochrome P450 system” value was “not a substrate”.
As for `CC(=O)N[C@H](Cc1ccc2ccccc2c1)C(=O)N[C@H](Cc1ccc(Cl)cc1)C(=O)N[C@H](Cc1cccnc1)C(=O)N[C@@H](CO)C(=O)N[C@@H](Cc1ccc(NC(=O)C[C@@H]2NC(=O)NC2=O)cc1)C(=O)N[C@H](Cc1ccc(NC(N)=O)cc1)C(=O)N[C@@H](CC(C)C)C(=O)N[C@@H](CCCCNC(C)C)C(=O)N1CCC[C@H]1C(=O)N[C@H](C)C(N)=O` [5‐Aph(Hyd)‐degarelix] (Ac-[d2Nal][dPhe(4-Cl)][d3Pal]S[Phe(4-NH2)](X1)[dPhe(4-NHCONH2)]L[Lys(iPr)]P[dA]-NH2), in data set [4] (5-Aph(Hyd)-degarelix in 4.5% HSA solution without warfarin), the “Change in the 5-Aph(Hyd)-degarelix content” value was “we did not see any change”. The “Formation of 5-Aph(Hyd)-degarelix from degarelix” value in data set [4] (degarelix in 4.5% HSA solution without warfarin, HPLC-MS/MS) is on record as “No 5‐Aph(Hyd)‐degarelix was observed”. Moreover, in data set [5] (5-Aph(Hyd)-degarelix in HSA solution with warfarin), the “Change in the 5-Aph(Hyd)-degarelix content” value is “we did not see any change”. Besides, the “Formation of 5-Aph(Hyd)-degarelix from degarelix” value in data set [5] (degarelix in 4.5% HSA solution with 0.21 mg/mL warfarin (equimolar to albumin), HPLC-MS/MS) was “No 5‐Aph(Hyd)‐degarelix was observed”. Also, in “in vitro”, the amount remaining at 8 h, 2000 ng/mL amounted to 103%; the fraction remaining at 24 h, 2000 ng/mL was found to be 93%; the share remaining at 32 h, 2000 ng/mL was determined as 91%; the fraction remaining at 48 h, 2000 ng/mL turned out to be 80%.

The values are drawn from article PMC10350552, “Investigation of the GnRH antagonist degarelix isomerization in biological matrices” (Pharmacology Research & Perspectives, 2023).
